# Measured values: patent publication US20260193264A1, “BENZOYPARAZINE PYRAZINES AND THEIR USES” (FOGHORN THERAPEUTICS INC., priority 2022, published 2026)
# Legend:
# [1] = biological target: T1, HiBiT-BRM fusion protein in stable HeLa cell line (Homo sapiens, UniProt P51531); assay: HiBiT-BRM cell-based degradation assay (Nano-Glo HiBiT Lytic Detection, 24 h); parameters: DC50: scale not given here; conditions: HeLa HiBiT-BRM cells; for DC50: read-out: BRM HiBit Degradation IC50; for BRM HiBit Degradation Maximum (%): top dose 30 μM
# T1 construct: expressed in transfected cells
# How it was run: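 Stable HiBiT-BRM HeLa cells treated 24 h with 10-point 3-fold dilutions, top final dose 30 μM, in duplicate. Luminescence read after lytic LgBiT reagent. Percent degradation was normalised to DMSO (high control) and 2 μM reference BRM/BRG1 degrader (low control).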
# [2] = biological target: T2, HiBit-BRG1 fusion protein in stable HeLa cell line expressing HiBit-BRG1 and LgBit (Homo sapiens, UniProt P51532); assay: HiBiT-BRG1 cell-based degradation assay (Nano-Glo HiBiT, 24 h); conditions: HeLa HiBit-BRG1/LgBit cells; for Dmax: top dose 30 μM, read-out: BRG1 HiBit Degradation Maximum (%); for DC50: read-out: BRMG1 HiBit Degradation IC50
# T2 construct: expressed in transfected cells
# How it was run: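 Stable HeLa line co-expressing HiBiT-BRG1 and LgBiT, compound-treated 24 h; luminescence read after Nano-Glo HiBiT lytic reagent. % degradation normalised between DMSO (high control) and 2 μM reference BRM/BRG1 degrader (low control).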
# T1 sequence (P51531 whole entry, the tested form may be a part): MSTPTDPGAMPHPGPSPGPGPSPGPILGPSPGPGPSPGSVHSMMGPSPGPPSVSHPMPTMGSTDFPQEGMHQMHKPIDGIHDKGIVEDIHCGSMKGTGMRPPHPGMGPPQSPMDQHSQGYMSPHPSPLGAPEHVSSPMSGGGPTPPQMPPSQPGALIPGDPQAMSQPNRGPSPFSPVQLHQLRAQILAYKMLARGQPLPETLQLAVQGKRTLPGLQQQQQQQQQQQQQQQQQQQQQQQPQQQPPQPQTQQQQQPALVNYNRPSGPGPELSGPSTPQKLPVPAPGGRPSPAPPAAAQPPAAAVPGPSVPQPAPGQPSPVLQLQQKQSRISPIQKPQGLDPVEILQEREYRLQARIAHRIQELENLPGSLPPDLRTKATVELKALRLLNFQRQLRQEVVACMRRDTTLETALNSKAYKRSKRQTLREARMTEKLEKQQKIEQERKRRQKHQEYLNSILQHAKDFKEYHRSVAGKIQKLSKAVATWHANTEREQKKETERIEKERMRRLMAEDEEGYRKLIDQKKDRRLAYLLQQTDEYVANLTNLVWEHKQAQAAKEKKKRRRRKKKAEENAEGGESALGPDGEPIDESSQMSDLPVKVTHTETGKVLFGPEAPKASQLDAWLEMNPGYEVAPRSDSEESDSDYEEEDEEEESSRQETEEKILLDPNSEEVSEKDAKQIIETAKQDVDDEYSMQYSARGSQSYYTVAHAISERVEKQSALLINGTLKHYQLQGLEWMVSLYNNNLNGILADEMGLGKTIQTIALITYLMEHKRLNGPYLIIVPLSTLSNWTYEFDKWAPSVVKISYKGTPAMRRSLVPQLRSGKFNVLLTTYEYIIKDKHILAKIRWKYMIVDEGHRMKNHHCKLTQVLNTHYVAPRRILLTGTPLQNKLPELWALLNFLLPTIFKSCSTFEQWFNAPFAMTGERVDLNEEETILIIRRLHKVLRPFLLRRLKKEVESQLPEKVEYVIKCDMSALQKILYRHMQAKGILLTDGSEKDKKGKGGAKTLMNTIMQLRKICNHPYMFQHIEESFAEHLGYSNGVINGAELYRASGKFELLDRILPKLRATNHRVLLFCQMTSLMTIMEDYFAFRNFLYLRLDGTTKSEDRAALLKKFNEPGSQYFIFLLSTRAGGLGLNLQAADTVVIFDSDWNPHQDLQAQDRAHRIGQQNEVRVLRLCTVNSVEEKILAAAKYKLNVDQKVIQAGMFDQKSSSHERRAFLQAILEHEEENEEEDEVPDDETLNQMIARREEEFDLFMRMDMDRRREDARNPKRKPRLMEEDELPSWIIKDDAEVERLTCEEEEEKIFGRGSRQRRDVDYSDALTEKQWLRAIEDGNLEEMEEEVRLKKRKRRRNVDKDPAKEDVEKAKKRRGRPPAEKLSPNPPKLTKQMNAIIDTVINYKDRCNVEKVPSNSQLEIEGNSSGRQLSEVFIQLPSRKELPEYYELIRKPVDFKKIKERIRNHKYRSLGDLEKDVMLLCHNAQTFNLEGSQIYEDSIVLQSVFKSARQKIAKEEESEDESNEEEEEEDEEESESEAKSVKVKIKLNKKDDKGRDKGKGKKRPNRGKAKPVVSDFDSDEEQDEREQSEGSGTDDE
# T2 sequence (P51532 whole entry, the tested form may be a part): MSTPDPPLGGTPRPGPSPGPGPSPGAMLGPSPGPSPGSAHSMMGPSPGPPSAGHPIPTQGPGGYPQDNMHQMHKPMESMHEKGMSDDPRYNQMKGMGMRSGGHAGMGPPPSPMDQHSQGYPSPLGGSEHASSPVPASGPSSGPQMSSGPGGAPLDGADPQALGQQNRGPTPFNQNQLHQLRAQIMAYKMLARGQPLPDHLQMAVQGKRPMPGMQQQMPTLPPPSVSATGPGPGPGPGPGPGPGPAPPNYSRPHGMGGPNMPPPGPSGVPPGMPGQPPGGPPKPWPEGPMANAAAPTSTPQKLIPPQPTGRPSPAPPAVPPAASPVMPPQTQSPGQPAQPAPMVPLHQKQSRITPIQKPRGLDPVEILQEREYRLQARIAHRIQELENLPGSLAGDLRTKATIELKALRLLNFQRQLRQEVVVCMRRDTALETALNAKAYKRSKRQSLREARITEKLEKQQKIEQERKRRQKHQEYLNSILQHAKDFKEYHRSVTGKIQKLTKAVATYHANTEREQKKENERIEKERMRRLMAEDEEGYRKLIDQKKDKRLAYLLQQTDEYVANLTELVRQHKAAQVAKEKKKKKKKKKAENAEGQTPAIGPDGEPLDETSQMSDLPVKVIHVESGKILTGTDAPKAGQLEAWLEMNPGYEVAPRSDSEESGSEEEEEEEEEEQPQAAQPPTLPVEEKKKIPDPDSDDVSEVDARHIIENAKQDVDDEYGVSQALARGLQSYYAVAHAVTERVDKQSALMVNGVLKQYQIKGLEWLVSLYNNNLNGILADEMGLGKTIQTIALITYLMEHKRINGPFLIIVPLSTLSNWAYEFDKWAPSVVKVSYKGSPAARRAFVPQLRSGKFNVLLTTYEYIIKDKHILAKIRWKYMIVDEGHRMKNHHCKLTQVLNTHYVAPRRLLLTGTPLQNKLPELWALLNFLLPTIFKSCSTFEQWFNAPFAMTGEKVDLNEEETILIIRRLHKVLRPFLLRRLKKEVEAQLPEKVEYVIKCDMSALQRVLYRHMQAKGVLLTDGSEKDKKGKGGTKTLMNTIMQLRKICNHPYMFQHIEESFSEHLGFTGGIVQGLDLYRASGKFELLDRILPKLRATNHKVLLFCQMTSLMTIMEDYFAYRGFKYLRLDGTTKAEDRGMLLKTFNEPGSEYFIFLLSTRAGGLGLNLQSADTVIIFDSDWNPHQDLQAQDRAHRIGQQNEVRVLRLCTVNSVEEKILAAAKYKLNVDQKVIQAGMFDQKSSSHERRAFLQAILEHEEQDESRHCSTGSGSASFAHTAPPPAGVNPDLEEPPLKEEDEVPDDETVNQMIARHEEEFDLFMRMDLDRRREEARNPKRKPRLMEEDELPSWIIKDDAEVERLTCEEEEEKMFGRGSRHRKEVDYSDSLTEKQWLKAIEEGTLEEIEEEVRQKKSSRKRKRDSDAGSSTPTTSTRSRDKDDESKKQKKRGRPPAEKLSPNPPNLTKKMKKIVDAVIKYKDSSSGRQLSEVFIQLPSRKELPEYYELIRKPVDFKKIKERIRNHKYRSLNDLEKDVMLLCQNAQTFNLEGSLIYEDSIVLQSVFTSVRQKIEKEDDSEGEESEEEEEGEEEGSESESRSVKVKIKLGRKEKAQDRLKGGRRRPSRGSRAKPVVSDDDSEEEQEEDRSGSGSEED
Structure (SMILES),DC50 [1],Dmax [2],DC50 [2],BRM HiBit Degradation Maximum (%) [1]
"CC(C)[C@@H](C(=O)N1C[C@H](O)C[C@H]1C(=O)N[C@@H](C)c1ccc(F)cc1)n1cc(-c2ccc3nnc(-c4cccc(F)c4O)cc3c2)nn1 [Compound 177, (2S,4R)-1-((S)-2-(4-(3-(3-fluoro-2-hydroxyphenyl)cinnolin-6-yl)-1H-1,2,3-triazol-1-yl)-3-methylbutanoyl)-N-((S)-1-(4-fluorophenyl)ethyl)-4-hydroxypyrrolidine-2-carboxamide]",< 10 nM,> 75%,> 10 nM,A (“A” indicates maximum degradation ≥75%)
"CC(C)[C@@H](C(=O)N1C[C@H](O)C[C@H]1C(=O)N[C@@H](C)c1ccc(Br)cc1)n1cc(-c2ccc3nnc(-c4cccc(F)c4O)cc3c2)nn1 [Compound 178, (2S,4R)-N-((S)-1-(4-bromophenyl)ethyl)-1-((S)-2-(4-(3-(3-fluoro-2-hydroxyphenyl)cinnolin-6-yl)-1H-1,2,3-triazol-1-yl)-3-methylbutanoyl)-4-hydroxypyrrolidine-2-carboxamide]",< 10 nM,> 75%,> 10 nM,A (“A” indicates maximum degradation ≥75%)
"Cc1ncsc1-c1ccc([C@H](C)NC(=O)[C@@H]2C[C@@H](O)CN2C(=O)[C@@H](c2cc(N3CC4(C3)CN(c3cc5nnc(-c6ccccc6O)cc5cc3F)C4)no2)C(C)C)cc1 [Compound 179, (2S,4R)-1-((R)-2-(3-(6-(6-fluoro-3-(2-hydroxyphenyl)cinnolin-7-yl)-2,6-diazaspiro [3.3]heptan-2-yl)isoxazol-5-yl)-3-methylbutanoyl)-4-hydroxy-N-((S)-1-(4-(4-methylthiazol-5-yl)phenyl)ethyl)pyrrolidine-2-carboxamide]",< 10 nM,< 50%,–,A (“A” indicates maximum degradation ≥75%)
"Cc1ncsc1-c1ccc([C@H](C)NC(=O)[C@@H]2C[C@@H](O)CN2C(=O)[C@@H](c2cc(N3CC4(C3)CN(c3cc5nnc(-c6cccc(F)c6O)cc5cc3C3CC3)C4)no2)C(C)C)cc1 [Compound 180, (2S,4R)-1-((R)-2-(3-(6-(6-cyclopropyl-3-(3-fluoro-2-hydroxyphenyl)cinnolin-7-yl)-2,6-diazaspiro[3.3]heptan-2-yl)isoxazol-5-yl)-3-methylbutanoyl)-4-hydroxy-N-((S)-1-(4-(4-methylthiazol-5-yl)phenyl)ethyl)pyrrolidine-2-carboxamide]",< 10 nM,< 50%,–,A (“A” indicates maximum degradation ≥75%)
"CNC(=O)[C@@H]1C[C@@H](O)CN1C(=O)[C@@H](c1cc(N2CC3(CN(c4ccc5nnc(-c6ccccc6O)cc5c4)C3)C2)no1)C(C)C [Compound 181, (2S,4R)-4-hydroxy-1-((R)-2-(3-(6-(3-(2-hydroxyphenyl)cinnolin-6-yl)-2,6-diazaspiro[3.3]heptan-2-yl)isoxazol-5-yl)-3-methylbutanoyl)-N-methylpyrrolidine-2-carboxamide]",> 100 nM,< 50%,–,A (“A” indicates maximum degradation ≥75%)
"Cc1ncsc1-c1ccc([C@H](C)NC(=O)[C@@H]2C[C@@H](O)CN2C(=O)[C@@H](c2cc(N3CCC(Oc4ccc5nnc(-c6ccccc6O)cc5c4)CC3)no2)C(C)C)cc1 [Compound 182, (2S,4R)-4-hydroxy-1-((R)-2-(3-(4-((3-(2-hydroxyphenyl)cinnolin-6-yl)oxy)piperidin-1-yl)isoxazol-5-yl)-3-methylbutanoyl)-N-((S)-1-(4-(4-methylthiazol-5-yl)phenyl)ethyl)pyrrolidine-2-carboxamide]",< 10 nM,> 75%,> 10 nM,A (“A” indicates maximum degradation ≥75%)
"Cc1ncsc1-c1ccc([C@H](C)NC(=O)[C@@H]2C[C@@H](O)CN2C(=O)[C@@H](c2cc(N3CCC(Oc4ccc5cc(-c6ccccc6O)nnc5c4)CC3)no2)C(C)C)cc1 [Compound 183, (2S,4R)-4-hydroxy-1-((R)-2-(3-(4-((3-(2-hydroxyphenyl)cinnolin-7-yl)oxy)piperidin-1-yl)isoxazol-5-yl)-3-methylbutanoyl)-N-((S)-1-(4-(4-methylthiazol-5-yl)phenyl)ethyl)pyrrolidine-2-carboxamide]",< 10 nM,> 50%,> 10 nM,A (“A” indicates maximum degradation ≥75%)
"Cc1ncsc1-c1ccc([C@H](C)NC(=O)[C@@H]2C[C@@H](O)CN2C(=O)[C@@H](c2cc(N3CC4(CC(Oc5ccc6nnc(-c7ccccc7O)cc6c5)C4)C3)no2)C(C)C)cc1 [Compound 184, (2S,4R)-4-hydroxy-1-((R)-2-(3-(6-((3-(2-hydroxyphenyl)cinnolin-6-yl)oxy)-2-azaspiro[3.3]heptan-2-yl)isoxazol-5-yl)-3-methylbutanoyl)-N-((S)-1-(4-(4-methylthiazol-5-yl)phenyl)ethyl)pyrrolidine-2-carboxamide]",< 10 nM,> 50%,> 10 nM,A (“A” indicates maximum degradation ≥75%)
"Cc1ncsc1-c1ccc([C@H](C)NC(=O)[C@@H]2C[C@@H](O)CN2C(=O)[C@@H](c2cc(N3C[C@]4(C)CN(c5ccc6nnc(-c7ccccc7O)cc6c5)C[C@]4(C)C3)no2)C(C)C)cc1 [Compound 188, (2S,4R)-4-hydroxy-1-((R)-2-(3-((3aR,6aS)-5-(3-(2-hydroxyphenyl)cinnolin-6-yl)-3a,6a-dimethylhexahydropyrrolo[3,4-c]pyrrol-2(1H)-yl)isoxazol-5-yl)-3-methylbutanoyl)-N-((S)-1-(4-(4-methylthiazol-5-yl)phenyl)ethyl)pyrrolidine-2-carboxamide]",> 10 nM,> 75%,> 10 nM,A (“A” indicates maximum degradation ≥75%)

# Second part, led by results:
DC50 [1],Dmax [2],DC50 [2],Structure (SMILES),BRM HiBit Degradation Maximum (%) [1]
> 10 nM,< 50%,–,"Cc1ncsc1-c1ccc([C@H](C)NC(=O)[C@@H]2C[C@@H](O)CN2C(=O)[C@@H](c2cccc(N3CC4(C3)CN(c3ccc5cc(-c6ccccc6O)nnc5c3)C4)c2)C(C)C)cc1 [Compound 174, (2S,4R)-4-hydroxy-1-((R)-2-(3-(6-(3-(2-hydroxyphenyl)cinnolin-7-yl)-2,6-diazaspiro[3.3]heptan-2-yl)phenyl)-3-methylbutanoyl)-N—((S)-1-(4-(4-methylthiazol-5-yl)phenyl)ethyl)pyrrolidine-2-carboxamide]",A (“A” indicates maximum degradation ≥75%)
> 10 nM,< 50%,–,"Cc1ncsc1-c1ccc([C@H](C)NC(=O)[C@@H]2C[C@@H](O)CN2C(=O)[C@@H](c2ccnc(N3CC4(CN(c5ccc6cc(-c7ccccc7O)nnc6c5)C4)C3)c2)C(C)C)cc1 [Compound 175, (2S,4R)-4-hydroxy-1-[(2R)-2-(2-{6-[3-(2-hydroxyphenyl)cinnolin-7-yl]-2,6-diazaspiro[3.3]heptan-2-yl}pyridin-4-yl)-3-methylbutanoyl]-N-[(1S)-1-[4-(4-methyl-1,3-thiazol-5-yl)phenyl]ethyl]pyrrolidine-2-carboxamide]",A (“A” indicates maximum degradation ≥75%)
< 10 nM,> 75%,< 10 nM,"Cc1ncsc1-c1ccc([C@H](C)NC(=O)[C@@H]2C[C@@H](O)CN2C(=O)[C@H](C(C)C)n2cc(-c3cc4cc(-c5ccccc5O)nnc4cc3F)nn2)cc1 [Compound 176, (2S,4R)-1-((S)-2-(4-(7-fluoro-3-(2-hydroxyphenyl)cinnolin-6-yl)-1H-1,2,3-triazol-1-yl)-3-methylbutanoyl)-4-hydroxy-N-((S)-1-(4-(4-methylthiazol-5-yl)phenyl)ethyl)pyrrolidine-2-carboxamide]",A (“A” indicates maximum degradation ≥75%)
< 10 nM,> 75%,< 10 nM,"Cc1ncsc1-c1ccc([C@H](C)NC(=O)[C@@H]2C[C@@H](O)CN2C(=O)[C@H](C(C)C)n2cc(C3CC4(C3)CN(c3ccc5cc(-c6ccccc6O)nnc5c3)C4)nn2)cc1 [Compound 186, (2S,4R)-4-hydroxy-1-[(2S)-2-(4-{2-[3-(2-hydroxyphenyl)cinnolin-7-yl]-2-azaspiro[3.3]heptan-6-yl}-1,2,3-triazol-1-yl)-3-methylbutanoyl]-N-[(1S)-1-[4-(4-methyl-1,3-thiazol-5-yl)phenyl]ethyl]pyrrolidine-2-carboxamide]",A (“A” indicates maximum degradation ≥75%)
< 10 nM,> 75%,> 10 nM,"Cc1ncsc1-c1ccc([C@H](C)NC(=O)[C@@H]2C[C@@H](O)CN2C(=O)[C@@H](c2cc(N3C[C@]4(C)CN(c5ccc6cc(-c7ccccc7O)nnc6c5)C[C@]4(C)C3)no2)C(C)C)cc1 [Compound 187, (2S,4R)-4-hydroxy-1-((R)-2-(3-((3aR,6aS)-5-(3-(2-hydroxyphenyl)cinnolin-7-yl)-3a,6a-dimethylhexahydropyrrolo[3,4-c]pyrrol-2(1H)-yl)isoxazol-5-yl)-3-methylbutanoyl)-N-((S)-1-(4-(4-methylthiazol-5-yl)phenyl)ethyl)pyrrolidine-2-carboxamide]",A (“A” indicates maximum degradation ≥75%)
